Like-named read-outs stand apart in the source and are kept apart here.
Assays:
[1] = molecular target: T1, PTP1B (human, recombinant) (Homo sapiens, UniProt P18031); experiment: PTP1B enzyme assay (p-NPP substrate); type: biochemical; settings: for IC50: mean ± SD of three replicates, 4 mM p-NPP, 37 °C, 30 min; for PTP1B inhibition mode (Lineweaver-Burk plot): p-NPP 1, 2, 4, 8 mM, compound 1, 2, 5, 10 μM
T1 construct: purchased BIOMOL International LP (USA)
T1 sequence (P18031 1-435): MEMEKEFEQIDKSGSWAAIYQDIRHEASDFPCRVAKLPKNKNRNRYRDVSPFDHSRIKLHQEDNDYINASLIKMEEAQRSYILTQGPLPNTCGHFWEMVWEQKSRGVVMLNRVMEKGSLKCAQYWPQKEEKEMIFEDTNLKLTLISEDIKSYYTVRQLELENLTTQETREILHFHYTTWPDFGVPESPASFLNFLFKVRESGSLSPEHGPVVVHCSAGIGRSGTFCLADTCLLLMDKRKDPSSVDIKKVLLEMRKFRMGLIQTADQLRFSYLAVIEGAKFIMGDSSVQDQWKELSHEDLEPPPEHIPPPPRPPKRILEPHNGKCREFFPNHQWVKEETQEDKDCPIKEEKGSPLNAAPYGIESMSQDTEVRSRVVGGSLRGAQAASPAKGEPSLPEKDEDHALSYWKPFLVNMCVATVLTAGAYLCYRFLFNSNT
Experimental: PTP1B (human, recombinant) was purchased from BIOMOL International LP (USA) and the enzyme activity was measured using p-nitrophenyl phosphate (p-NPP) (N1891, Sigma-Aldrich, St. Louis, MO, USA) as a substrate. In general, the assay was performed in 96-well plate containing 4 mM p-NPP and PTP1B (0.05–0.1 μg) in enzyme buffer (50 mM citrate (pH 6.0), 0.1 M NaCl, 1 mM dithiothreitol (DTT), and 1 mM EDTA) with or without test compounds. The assay was also carried out in the absence of PTP1B enzyme to exclude the effect of test compounds on the measurement absorbance. Following incubation at 37 °C for 30 min, the reaction was terminated with 10 M NaOH solution. The amount of produced p-nitrophenol was estimated by measuring the absorbance at 405 nm using an absorbance microplate reader (VersaMax™, Randor, PA, USA). For the enzyme kinetic determination, Lineweaver-Burk was used to determine the inhibition type of PTP1B. On the basis of Lineweaver-Burk double reciprocal plots, the PTP1B inhibition mode was obtained at various concentrations of p-NPP substrate (1, 2, 4, and 8 mM) without or with different test compound concentrations (1, 2, 5, and 10 μM).

MCF7/TAMR = experiment: Cytotoxic activity against tamoxifen-resistant MCF7 cells
MCF-7 cells = experiment: Flow cytometric analysis of cell apoptosis (ApopNexin FITC / PI); type: cell-based
Experimental: An ApopNexin™ FITC kit (Millipore) was used for the flow cytometric analysis. After MCF-7 cells were seeded on 6-well plates and incubated for 24 h, the cells were treated with test compounds and incubated for 12 h. The detached cells were collected and resuspended to wash the cells twice with PBS. The cells were suspended in cold binding buffer (10 mM Hepes/NaOH pH 7.4, 140 mM NaCl, 2.5 mM CaCl2) at a concentration of 10^6 cells/mL. Annexin conjugate ApopNexin™ FITC and propidium iodide (PI) were added to the cell suspension, which was incubated for 15 min in the dark. Then, the double-stained cells were immediately analyzed using a flow cytometer (BD bioscience, San Jose, CA, USA).

MDA-MB-231 = experiment: Cytotoxic activity against MDA-MB-231 breast cancer cells
MCF7 = experiment: Cytotoxic activity against MCF7 breast cancer cells
[2] = system: MCF7, MDA-MB-231 and MCF7/TAMR breast cancer cell lines
[3] = Homo sapiens, MCF7, read-out: Cytotoxic Activities (IC50, μM) MCF7/TAMR
[4] = Homo sapiens, MDA-MB-231, read-out: Cytotoxic Activities (IC50, μM) MDA-MB-231
[5] = Homo sapiens, MCF7, read-out: Cytotoxic Activities (IC50, μM) MCF7

CC1(C)CC[C@]2(C(=O)O)CC[C@]3(C)C(=CCC4[C@@]5(C)CCC(O[C@@H]6OC[C@H](O)[C@H](O)[C@H]6O)C(C)(C)C5CC[C@]43C)C2C1 (stereo partly drawn) [Compound 6, 3-O-α-L-arabinopyranosyl olean-12-en-28-oic acid]
IC50 [1]: 4.08 ± 1.09 µM
PTP1B inhibition mode (Lineweaver-Burk plot) [1]: noncompetitive
IC50 (MCF7/TAMR; [3]): 1.39 ± 0.18 µM
percentage of apoptotic cancer cells (higher right field, Annexin FITC/PI) (MCF-7 cells; 10 μM, 12 h): 89.47%
viability at 10 µM (MCF-7 cells; Homo sapiens, MCF7, 12 h, read-out: percentage of cells in lower left field (viable; low Annexin V and PI staining)): 0.75%
IC50 (MDA-MB-231; [4]): 0.84 ± 0.17 µM
IC50 (MCF7; [5]): 1.11 ± 0.04 µM

4-hydroxy tamoxifen [4-OH tamoxifen, reference compound]
IC50 (MCF7/TAMR; read-out: Cytotoxic Activities (IC50, μM) MCF7/TAMR, MCF7/TAMR, mean ± SD of three replicates): 13.6 ± 1.25 µM
IC50 (MDA-MB-231; read-out: Cytotoxic Activities (IC50, μM) MDA-MB-231, MDA-MB-231, mean ± SD of three replicates): 3.1 ± 0.31 µM
IC50 (MCF7; read-out: Cytotoxic Activities (IC50, μM) MCF7, MCF7, mean ± SD of three replicates): 2.11 ± 0.39 µM

CC1(C)CC[C@]2(C(=O)O)CC[C@]3(C)C(=CCC4[C@@]5(C)CCC(O[C@@H]6OC[C@H](O[C@@H]7O[C@H](CO)[C@@H](O)[C@H](O)[C@H]7O)[C@H](O)[C@H]6O)C(C)(C)C5CC[C@]43C)C2C1 (stereo partly drawn) [Compound 8]
IC50 [1]: 21.8 ± 4.74 µM
IC50 (MCF7/TAMR; [3]): 1.78 ± 0.13 µM
IC50 (MDA-MB-231; [4]): 1.55 ± 0.21 µM
IC50 (MCF7; [5]): 1.29 ± 0.09 µM

CC1(C)CC[C@]2(C(=O)O)CC[C@]3(C)C(=CCC4[C@@]5(C)C[C@@H](O)[C@@H](O)[C@](C)(CO)C5CC[C@]43C)C2C1 (stereo partly drawn) [Compound 11, 2α,3α,23-trihydroxyoleane-12-en-28-oic acid]
IC50 [1]: 7.78 ± 1.43 µM
IC50 (MCF7; [5]): > 40 µM

CC/C(=C(\c1ccccc1)c1ccc(OCCN(C)C)cc1)c1ccccc1 [Tamoxifen, tamoxifen, reference compound]
IC50 (MCF7/TAMR; [3]): 25.4 ± 1.79 µM
IC50 (MDA-MB-231; [4]): 10.1 ± 1.51 µM
IC50 (MCF7; [5]): 8.01 ± 1.81 µM

CC1=C(C)C2=CC(=O)c3c(O)c4c(c(O)c3[C@@]2(C)CC1)O[C@@H](C)C4 [Compound 3, uncinatone]
IC50 [1]: 5.41 ± 0.68 µM
PTP1B inhibition mode (Lineweaver-Burk plot) [1]: noncompetitive
cytotoxic activities against breast cancer lines, IC50 values ranging over the cell lines [2]: 0.84 ± 0.17 to 13.42 ± 1.26
IC50 (MCF7/TAMR; [3]): 7.73 ± 1.02 µM
IC50 (MDA-MB-231; [4]): 5.14 ± 1.55 µM
IC50 (MCF7; [5]): 6.02 ± 2.32 µM

CC(CO)c1cc2c(c(O)c1O)[C@@]1(C)CCCC(C)(C)C1CC2=O (stereo partly drawn) [Compound 2, cyrtophyllones B]
IC50 [1]: 6.77 ± 1.28 µM
cytotoxic activities against breast cancer lines, IC50 values ranging over the cell lines [2]: 0.84 ± 0.17 to 13.42 ± 1.26
IC50 (MCF7/TAMR; [3]): 13.4 ± 1.26 µM
IC50 (MDA-MB-231; [4]): 4.04 ± 0.8 µM
IC50 (MCF7; [5]): 7.91 ± 0.39 µM

— PMC6273847, “Protein Tyrosine Phosphatase 1B Inhibitors from the Stems of Akebia quinata” (Molecules, 2016)
